According to US6552208B1, “Fractionation process” (Karlshamns AB, priority 1998, dated 2003):

System: Normal human dermal fibroblasts
Test: UV radiation test in vitro, UV-B
Assay type: cell-based
Conditions: fibroblasts exposed to test substance 48 hours before UV irradiation; UV dose inducing 50% of cell death
Experimental: The fractionated low-erucic rapeseed oil of Example 1, the canola oil fraction, was tested in vitro for its ability to decrease the damage to cells exposed to free radicals generated by exposure to UV radiation. Normal human dermal fibroblasts were exposed to the test substance at different concentrations 48 hours before UV irradiation. DL-α-tocopheryl acetate was used as a positive control in the study. The UV dose inducing 50% of cell death was determined after the treatment by exposing the cell cultures to UV-A and UV-B radiation at different intensities.

CC(=O)Oc1c(C)c(C)c2c(c1C)CC[C@@](C)(CCC[C@H](C)CCC[C@H](C)CCCC(C)C)O2 (racemic) [DL-α-tocopheryl acetate]
protection against UV-B radiation: neither the fractionated rapeseed oil of Example 1 or the DL-α-tocopheryl acetate gave any protection
